According to US11339171B2, “MDM2 inhibitors” (Gan & Lee Pharmaceuticals, priority 2017, dated 2022):
Several values for one entry are separate records, joined by “and”; a condition that tells them apart may be missing. Identical values can stand only once. Like-named read-outs stand apart in the source and are kept apart here.

Columns and labels:
[1] = test system: human osteosarcoma cell line SJSA-1; test: Inhibition of proliferation of human osteosarcoma cell line SJSA-1 (DAPI staining, In Cell Analyzer); conditions: Homo sapiens, SJSA-1, 72 h, read-out: IC50 (nM), inhibitory activity on proliferation of human osteosarcoma cell line SJSA-1, SJSA-1, incubated 72 h
[2] = biological target: T1, MDM2 (Homo sapiens, UniProt Q00987); test: Inhibition test of MDM2-P53 (GST-MDM2, Biotin-P53, Anti-GST-Tb, SA-XL665); format: binding
T1 construct: made in house
Procedure, shortened: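 Binding was measured by TR-FRET with GST-MDM2 at 4 nM final in PBS with 0.1% BSA, 5 mM DTT and 1 mM AEBSF. Compounds were tested as twelve-point 5-fold dilutions and incubated with the detection mix for 90 min at 25 °C with shaking before plate-reader reading and curve fitting.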

[3] = Pharmacokinetics in ICR mice after intravenous and intragastric administration; format: in vivo; conditions: for MRT inf: read-out: MRT(0-∞); for Vd: read-out: Vz; for MRT last: read-out: MRT(0-t)
Procedure, shortened: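 Male ICR mice (6-9 weeks, 20-30 g, n=3 per route) were fasted overnight and dosed at 2 mg/kg i.v. or 5 mg/kg intragastrically in 5% DMSO/40% PEG400/55% (10% HP-β-CD in saline). Plasma levels were measured by LC-MS/MS after protein precipitation (LLOQ 1 ng/mL), and non-compartmental PK parameters were calculated.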

[4] = ICR mice, IV 2 mg/kg, individual animals 301-303, 2 mg/kg
[5] = ICR mice, PO 5 mg/kg, individual animals 401-403, 5 mg/kg
[6] = male, ICR, mouse, plasma, iv, 2 mg/kg, ICR mice, IV 2 mg/kg, individual animals 301-303
[7] = male, ICR, mouse, plasma, iv, 2 mg/kg, ICR mice, IV 2 mg/kg, mean of 3 animals
[8] = male, ICR, mouse, plasma, po, 5 mg/kg, ICR mice, PO 5 mg/kg, individual animals 401-403
[9] = male, ICR, mouse, plasma, po, 5 mg/kg, ICR mice, PO 5 mg/kg, mean of 3 animals

T1 sequence (Q00987 whole entry): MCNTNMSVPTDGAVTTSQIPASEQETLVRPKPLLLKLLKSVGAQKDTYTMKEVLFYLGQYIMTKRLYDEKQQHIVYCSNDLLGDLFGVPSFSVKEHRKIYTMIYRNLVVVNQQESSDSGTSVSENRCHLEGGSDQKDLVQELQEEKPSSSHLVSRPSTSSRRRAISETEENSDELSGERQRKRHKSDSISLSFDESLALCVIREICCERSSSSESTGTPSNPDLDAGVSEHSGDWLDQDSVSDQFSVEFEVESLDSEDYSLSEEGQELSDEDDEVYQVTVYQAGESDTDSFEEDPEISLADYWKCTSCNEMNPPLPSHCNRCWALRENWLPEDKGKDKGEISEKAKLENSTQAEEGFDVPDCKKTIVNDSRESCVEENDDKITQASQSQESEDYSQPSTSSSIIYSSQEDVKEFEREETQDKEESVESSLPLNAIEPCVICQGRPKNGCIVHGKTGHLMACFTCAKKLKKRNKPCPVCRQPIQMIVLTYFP

**Q.** Which IC50 [1] does the source give for `COc1cc(C(F)(F)F)ncc1-c1nc2c(n1C(C)C)[C@@]1(C(=O)Nc3cc(Cl)ccc31)N(c1cc(Cl)ccc1C)C2=O` [Example S-138, (S)-6-chloro-5′-(5-chloro-2-methylphenyl)-3′-isopropyl-2′-(4-methoxy-6-(trifluoromethyl)pyridin-3-yl)-3′H-spiro[dihydroindole-3,4′-pyrrolo[3,4-d]imidazole]-2,6′(5′H)-dione] here?
**A.** 75.7 nM

**Q.** And the IC50 [2]?
**A.** 1.04 nM

**Q.** And the “AUC(0-t)” value [3, 4]?
**A.** 3427.99 ng·h/mL and 6387.52 ng·h/mL

**Q.** What about the “AUC(0-∞)” value [3, 4] of the same molecule?
**A.** 5237.36 ng·h/mL and 6445.45 ng·h/mL

**Q.** And the CL [3, 4]?
**A.** 6.36 mL/min/kg and 5.17 mL/min/kg

**Q.** And the Cmax [3, 4]?
**A.** 2002.99 ng/mL and 1828.27 ng/mL

**Q.** What about the “MRT(0-t)” value [3, 4] of the same molecule?
**A.** 4.04 h and 2.03 h and 4.19 h

**Q.** And the “MRT(0-∞)” value [3, 4]?
**A.** 5.54 h and 4.42 h

**Q.** What about the Vz [3, 4] of the same molecule?
**A.** 2.37 L/kg and 1.70 L/kg

**Q.** And the t1/2 [3, 4]?
**A.** 4.29 h and 3.81 h

**Q.** What about the “F*” value ([3]; ICR mice, PO 5 mg/kg vs IV 2 mg/kg, mean) of the same molecule?
**A.** 58.12%

**Q.** And the “AUC(0-t)” value [3, 5]?
**A.** 7494.57 ng·h/mL and 8147.05 ng·h/mL

**Q.** And the “AUC(0-∞)” value [3, 5]?
**A.** 8818.35 ng·h/mL and 9514.89 ng·h/mL

**Q.** And the Cmax [3, 5]?
**A.** 1475.55 ng/mL and 1466.48 ng/mL

**Q.** What about the “MRT(0-t)” value [3, 5] of the same molecule?
**A.** 3.19 h and 3.27 h

**Q.** And the “MRT(0-∞)” value [3, 5]?
**A.** 4.51 h and 4.52 h

**Q.** And the Tmax [3, 5]?
**A.** 4.00 h and 2.00 h and 1.00 h

**Q.** And the t1/2 [3, 5]?
**A.** 2.74 h

**Q.** What about the AUC(0-inf) [3, 6] of the same molecule?
**A.** 6130 ng·h/mL

**Q.** And the clearance [3, 6]?
**A.** 5.44 mL/min/kg

**Q.** What about the AUC(0-t) ([3]; male, ICR, mouse, plasma, iv, 2 mg/kg, ICR mice, IV 2 mg/kg, individual animals 301-303, read-out: AUC(0-t)) of the same molecule?
**A.** 6060 ng·h/mL

**Q.** What about the Cmax ([3]; male, ICR, mouse, plasma, iv, 2 mg/kg, ICR mice, IV 2 mg/kg, individual animals 301-303, read-out: Cmax) of the same molecule?
**A.** 2170 ng/mL

**Q.** And the MRT inf [3, 6]?
**A.** 4.32 h

**Q.** And the Tmax ([3]; male, ICR, mouse, plasma, iv, 2 mg/kg, ICR mice, IV 2 mg/kg, individual animals 301-303, read-out: Tmax)?
**A.** 0.08 h

**Q.** What about the Vd [3, 6] of the same molecule?
**A.** 1.9 L/kg

**Q.** What about the half-life ([3]; male, ICR, mouse, plasma, iv, 2 mg/kg, ICR mice, IV 2 mg/kg, individual animals 301-303, read-out: t1/2 (converted)) of the same molecule?
**A.** 4.03 h

**Q.** And the AUC(0-inf) [3, 7]?
**A.** 5940 ng·h/mL

**Q.** What about the clearance [3, 7] of the same molecule?
**A.** 5.66 mL/min/kg

**Q.** What about the AUC(0-t) ([3]; male, ICR, mouse, plasma, iv, 2 mg/kg, ICR mice, IV 2 mg/kg, mean of 3 animals, read-out: AUC(0-t)) of the same molecule?
**A.** 5290 ng·h/mL

**Q.** What about the Cmax ([3]; male, ICR, mouse, plasma, iv, 2 mg/kg, ICR mice, IV 2 mg/kg, mean of 3 animals, read-out: Cmax) of the same molecule?
**A.** 2000 ng/mL

**Q.** And the MRT last [3, 7]?
**A.** 3.42 h

**Q.** What about the MRT inf [3, 7] of the same molecule?
**A.** 4.76 h

**Q.** And the Tmax ([3]; male, ICR, mouse, plasma, iv, 2 mg/kg, ICR mice, IV 2 mg/kg, mean of 3 animals, read-out: Tmax)?
**A.** 0.083 h

**Q.** And the Vd [3, 7]?
**A.** 1.99 L/kg

**Q.** What about the half-life ([3]; male, ICR, mouse, plasma, iv, 2 mg/kg, ICR mice, IV 2 mg/kg, mean of 3 animals, read-out: t1/2 (converted)) of the same molecule?
**A.** 4.04 h

**Q.** What about the AUC(0-inf) [3, 8] of the same molecule?
**A.** 9150 ng·h/mL

**Q.** And the AUC(0-t) ([3]; male, ICR, mouse, plasma, po, 5 mg/kg, ICR mice, PO 5 mg/kg, individual animals 401-403, read-out: AUC(0-t))?
**A.** 7430 ng·h/mL

**Q.** What about the Cmax ([3]; male, ICR, mouse, plasma, po, 5 mg/kg, ICR mice, PO 5 mg/kg, individual animals 401-403, read-out: Cmax) of the same molecule?
**A.** 1240 ng/mL

**Q.** What about the MRT last [3, 8] of the same molecule?
**A.** 3.56 h

**Q.** What about the MRT inf [3, 8] of the same molecule?
**A.** 5.12 h

**Q.** And the half-life ([3]; male, ICR, mouse, plasma, po, 5 mg/kg, ICR mice, PO 5 mg/kg, individual animals 401-403, read-out: t1/2 (converted))?
**A.** 2.69 h

**Q.** What about the AUC(0-inf) [3, 9] of the same molecule?
**A.** 9160 ng·h/mL

**Q.** And the AUC(0-t) ([3]; male, ICR, mouse, plasma, po, 5 mg/kg, ICR mice, PO 5 mg/kg, mean of 3 animals, read-out: AUC(0-t))?
**A.** 7690 ng·h/mL

**Q.** What about the Cmax ([3]; male, ICR, mouse, plasma, po, 5 mg/kg, ICR mice, PO 5 mg/kg, mean of 3 animals, read-out: Cmax) of the same molecule?
**A.** 1390 ng/mL

**Q.** What about the MRT last [3, 9] of the same molecule?
**A.** 3.34 h

**Q.** What about the MRT inf [3, 9] of the same molecule?
**A.** 4.72 h

**Q.** And the Tmax ([3]; male, ICR, mouse, plasma, po, 5 mg/kg, ICR mice, PO 5 mg/kg, mean of 3 animals, read-out: Tmax)?
**A.** 2.33 h

**Q.** What about the half-life ([3]; male, ICR, mouse, plasma, po, 5 mg/kg, ICR mice, PO 5 mg/kg, mean of 3 animals, read-out: t1/2 (converted)) of the same molecule?
**A.** 2.72 h

**Q.** What about the AUC(0-t) ([3]; male, ICR, mouse, plasma, po, 5 mg/kg, oral intragastric administration 5 mg/kg, read-out: AUC0-t) of the same molecule?
**A.** 7690 ng·h/mL

**Q.** What about the half-life ([3]; male, ICR, mouse, plasma, po, 5 mg/kg, oral intragastric administration 5 mg/kg, read-out: half-life (converted)) of the same molecule?
**A.** 2.72 h
